Source: patent US20100331577A1, “Method for radio-labeling serotonin transporter ligand, 123I-IADM” (ATOMIC ENERGY COUNCIL-INSTITUTE OF NUCLEAR ENERGY RESEARCH, priority 2008, published 2010)

What was measured:
serotonin transporter [1] = target: T1, serotonin transporter (Rattus norvegicus, UniProt P31652); experiment: microSPECT and microCT imaging of the brain of a SD rat; format: in vivo
T1 construct: from tissue; host or cells: brain of a SD rat (in vivo imaging)
Description: Referring to FIG. 8, a microCT image 71 and a microSPECT image 72 of the brain of a SD rat are shown. A fused image 73 of the microCT image and the microSPECT image 72 is also shown. […] The concentration of the serotonin transporter in the midbrain is higher than in the cerebellum 73. The ^123I-ADAM 13 can effectively be used to detect the serotonin transporter.

[2] = radiochemistry purity over time measured by HPLC (stability); format: physicochemical; conditions: main peak 63
Description: Referring to FIG. 4, an HPLC is used to measure the radiochemistry purity of the ^123I-ADAM 13. Reverse-phase high-performance liquid chromatography equipped with a radiodetector is used for the qualitative and quantitative assessment of the ^123I-ADAM 13. The retention time of the ^123I-ADAM 13 is 18 minutes.
Referring to FIG. 6, the radiochemistry purity of the ^123I-ADAM after 0 hour is shown in a chart. At 61, the radiochemistry purity is 0.67%. At 62, the radiochemistry purity is 1.58%. At 63, the radiochemistry purity is 97.78%.
Referring to FIG. 7, the radiochemistry purity of the ^123I-ADAM after 48 hours is shown in a chart. At 64, the radiochemistry purity is 4.41%. At 65, the radiochemistry purity is 1.55%. At 66 the radiochemistry purity is 94.04%. After 48 hours, the radiochemistry purity is still higher than 90%.

serotonin transporter [3] = experiment: SPECT and MRI imaging of the brain of an ape; format: in vivo
Description: Referring to FIG. 9, the ^123I-ADAM is used to provide a SPECT image and a MRI image 82 of an ape. […] The concentration of the serotonin transporter in the hypothalamus is higher than in the cerebellum 83. The ^123I-ADAM 13 can effectively be used to detect the serotonin transporter.

serotonin transporter [4] = target: T2, serotonin transporter (Homo sapiens, UniProt P31645); conditions: cited from earlier work
serotonin transporter [5] = target: T2, serotonin transporter; conditions: cited from earlier work; for clarity of the image obtained: compared with ^125I-IDAM; for specific binding affinity: imaging of the serotonin transporter
[6] = cited from earlier work
SERT = SERT (Homo sapiens, UniProt P31645); conditions: in vitro specific binding assay; cited from earlier work
SERT, sequence (P31645 whole entry): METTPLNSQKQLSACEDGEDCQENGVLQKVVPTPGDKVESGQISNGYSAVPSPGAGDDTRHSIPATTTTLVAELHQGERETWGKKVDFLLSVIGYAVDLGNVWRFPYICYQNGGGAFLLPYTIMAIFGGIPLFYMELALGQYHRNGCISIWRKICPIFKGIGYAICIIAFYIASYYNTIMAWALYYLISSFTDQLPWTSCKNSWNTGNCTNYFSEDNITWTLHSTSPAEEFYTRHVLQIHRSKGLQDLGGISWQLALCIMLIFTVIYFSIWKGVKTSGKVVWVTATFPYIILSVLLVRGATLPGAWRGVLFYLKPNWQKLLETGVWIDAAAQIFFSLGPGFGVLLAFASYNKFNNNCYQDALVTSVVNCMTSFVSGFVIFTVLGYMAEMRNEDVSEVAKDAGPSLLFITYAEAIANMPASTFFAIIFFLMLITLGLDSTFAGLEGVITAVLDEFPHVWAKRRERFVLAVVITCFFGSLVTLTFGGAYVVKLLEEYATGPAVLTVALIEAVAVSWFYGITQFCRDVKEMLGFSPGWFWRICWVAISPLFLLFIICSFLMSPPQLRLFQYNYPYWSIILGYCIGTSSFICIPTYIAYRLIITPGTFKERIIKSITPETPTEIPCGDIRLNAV

T2 sequence (P31645 whole entry): as above
T1 sequence (P31652 whole entry): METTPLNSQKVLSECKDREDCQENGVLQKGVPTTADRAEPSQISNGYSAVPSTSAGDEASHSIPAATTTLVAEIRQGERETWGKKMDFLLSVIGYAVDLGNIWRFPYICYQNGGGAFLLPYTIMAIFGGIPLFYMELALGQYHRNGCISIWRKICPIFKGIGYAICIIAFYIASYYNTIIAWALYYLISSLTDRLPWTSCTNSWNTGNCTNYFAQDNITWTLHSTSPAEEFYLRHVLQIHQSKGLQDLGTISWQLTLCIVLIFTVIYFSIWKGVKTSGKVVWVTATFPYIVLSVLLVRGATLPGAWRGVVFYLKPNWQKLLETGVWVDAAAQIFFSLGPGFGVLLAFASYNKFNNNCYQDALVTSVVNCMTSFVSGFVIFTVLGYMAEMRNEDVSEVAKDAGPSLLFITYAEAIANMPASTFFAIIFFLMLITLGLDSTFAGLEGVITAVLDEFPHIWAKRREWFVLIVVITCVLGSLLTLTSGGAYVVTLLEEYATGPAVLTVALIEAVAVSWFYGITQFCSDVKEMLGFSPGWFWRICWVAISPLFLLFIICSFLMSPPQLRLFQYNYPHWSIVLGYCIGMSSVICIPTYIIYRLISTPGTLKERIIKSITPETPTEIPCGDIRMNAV

SMILES: CN(C)Cc1ccccc1Sc1ccc([123I])cc1N [^123I-ADAM]
- affinity with the midbrain versus cerebellum (serotonin transporter [1]): better than with the cerebellum
- radiochemistry purity after 0 hour [2]: 97.78%
- affinity with the hypothalamus of the midbrain versus cerebellum (serotonin transporter [3]): more affinitive than with the cerebellum

SMILES: CN(C)Cc1ccccc1Sc1ccc([125I])cc1N [^125I-ADAM]
- affinity with the serotonin transporter (serotonin transporter [4]): much better than that of ^125I-IDAM
- clarity of the image obtained (serotonin transporter [5]): clearer
- specific binding affinity (serotonin transporter [5]): much higher than ^125I-IDAM
- absorption by the brain ([6]; compared with ^125I-IDAM): less than ^125I-IDAM

SMILES: CN(C)Cc1ccccc1Sc1ccc([125I])cc1CO [^125I-IDAM]
- specific binding affinity (serotonin transporter [5]): 1.75
- absorption by a brain ([6]; two minutes after injection): 2.44%

SMILES: CN(C)Cc1ccccc1Oc1ccc([125I])cc1CO [^125I-ODAM]
- clarity of the image obtained (serotonin transporter [5]): less clear than with the use of ^125I-IDAM
- specific binding affinity with SERT (SERT): good
